According to patent US20190125790A1, “USE OF HYPOCHLOROUS ACID AS A TOPICAL ANTIMICROBIAL” (BIIOSMART TECHNOLOGIES LLC, priority 2016, published 2019):

Key:
[1] = tested on: Staphylococcus epidermidis; assay: Antimicrobial efficacy of HOCl skin cleanser (Table 1); assay type: cell-based; details: 0.01% HOCl; 30 seconds
Salmonella enteritidis = assay: as above; assay type: cell-based; details: 0.01% HOCl; 30 seconds
Escherichia coli = assay: as above; assay type: cell-based; details: 0.01% HOCl; 30 seconds
S. pyogenes = assay: as above; assay type: cell-based; details: 0.01% HOCl; 30 seconds
Campylobacter rectus = assay: as above; assay type: cell-based; details: 0.01% HOCl; 30 seconds
Candida albicans [2] = assay: as above; assay type: cell-based; details: 0.01% HOCl; 30 seconds
Human papilloma virus = assay: as above; assay type: cell-based; details: 0.01% HOCl; 30 seconds
Herpes simplex virus = assay: as above; assay type: cell-based; details: 0.01% HOCl; 30 seconds
Herpes Simplex = assay: Efficacy at 30 seconds (Table 2); assay type: cell-based; details: 0.01 to 0.05% aqueous solution
K. pneumoniae = assay: Efficacy at 30 seconds (Table 2); assay type: cell-based; details: 0.01 to 0.05% aqueous solution
VRE = assay: Efficacy at 30 seconds (Table 2); assay type: cell-based, vancomycin-resistant enterococci; details: 0.01 to 0.05% aqueous solution
[3] = tested on: Trichophyton mentagrophytes; assay: Efficacy at 30 seconds (Table 2); assay type: cell-based; details: 0.01 to 0.05% aqueous solution
[4] = tested on: E. coli Carbapenem Resistant; assay: Efficacy at 30 seconds (Table 2); assay type: cell-based; details: 0.01 to 0.05% aqueous solution
Candida albicans [5] = assay: ASTM E2315 Time Kill Assay for Antimicrobial Agents; assay type: cell-based; details: 0.046% HOCl aqueous solution; 30 seconds; high organic load
Description: (§1) Table 3. below represents the efficacy of 0.046% aqueous hypochlorous acid solution in the presence of high organic load. ASTM E2315 Time Kill Assay for Antimicrobial Agents. The study was performed in ATS labs in Minnesota recommended by the U.S. FDA's Tentative Final Monograph for OTC Healthcare Antiseptic Drug. […] Additional times were evaluated: 1 minute, 5 minutes, and 10 minutes, all with and without organic soil (Using 10% whole milk and 5% Fetal Bovine Serum). The trend in the efficiency is maintained under the same proportions.

Haemophilus influenzae = assay: as above; assay type: cell-based; details: 0.046% HOCl aqueous solution; 30 seconds; high organic load
Description: as §1

[6] = tested on: Herpes Simplex Virus type 2 (HSV-2); assay: Test of viral inactivation, ASTM E1052-96 viruses in suspension; assay type: cell-based; details: 0.04% HOCl aqueous solution; 30 seconds
[7] = tested on: Vesicular Stomatitis Virus (VSV); assay type: cell-based; details: 0.04% HOCl aqueous solution; 30 seconds
Enterovirus-71 (EV-71) = assay: Test of viral inactivation, ASTM E1052-96 viruses in suspension; assay type: cell-based; details: 0.04% HOCl aqueous solution; 30 seconds
Acute Oral Toxicity = details: both sexes, rat, in vivo, 5000 mg/Kg, Wistar Rats, 0.05% concentration HOCl aqueous solutions, males and females, read-out: acute median lethal dose LD50
Source text: (§2) Table 5. contains the results of several acute and sub-chronic toxicity tests.

[8] = Acute Inhalation Toxicity; assay type: in vivo, Young Adult Wistar Rats
Source text: as §2

[9] = USP <51> Antimicrobial Effectiveness Testing; assay type: cell-based; details: 0.05% HOCl aqueous solution
Source text: A 0.05% HOCl aqueous solution is intended for the cleansing and removal of the most common bacteria and viruses associated with skin-to-skin sexually transmitted diseases (pre and post sexual activity) to promote general sexual hygiene.

[10] = tested on: all microorganisms tested; assay: ASTM E2315 Time Kill Assay, summary of Table 3; assay type: cell-based; details: concentration of 0.046%, 30 seconds
Description: as §1

[11] = Biocompatibility in treated patients; assay type: in vivo, human; details: 0.05% HOCl aqueous solution; over 20,000 patients treated
Source text: The 0.05% HOCl concentration aqueous solution is biocompatible and found to have a high safety profile. Over 20,000 patients have been treated with the solution with zero reported cases of hypersensitivity. The solution is pH controlled for biocompatibility, formulated for use on sensitive mucous membrane areas of the body, is non-antibiotic, non-irritating, non-allergenic, non-invasive, and non-toxic. No adverse effects against cellular growth in the patient.

[12] = Controlled randomized single blind clinical trial in surgical open wounds; assay type: in vivo, human
Description: The biocompatibility of the 0.046% HOCl concentration aqueous solution was tested in a three way controlled and randomized single blind clinical trial. Patients were randomized into three groups (60 patients per group). The antiseptic efficacy and biocompatibility of the test solution vs. povidone-iodine vs. chlorhexidine (Chlorhexidine Gluconate—CHG) in surgical—clean and clean contaminated—open wounds was evaluated in 180 patients admitted to the surgical facilities of Erasmo Meoz Hospital in Cucuta, Colombia.

[13] = Non-randomized study of skin ulcers, 822 patients; assay type: in vivo, human; details: 0.046% HOCl aqueous solution
Description: A non-randomized, non-placebo controlled study involving 822 patients with a variety of ulcers was conducted. These patients were treated with HOCl aqueous solution (0.046%) as the only therapeutic intervention and followed the patients for six months to evaluate ulcer closure as a marker of therapeutic success.

E. coli = assay: Efficacy at 30 seconds (Table 2); details: 0.01 to 0.05% aqueous solution

Question: For `OCl` [HOCl, hypochlorous acid], which “% Reduction” value [1] is on record?
Answer: The value was 99.999%.

Question: What about the “Log Reduction” value [1] of the same molecule?
Answer: Its value is greater than 5.8 Log10.

Question: And the “% Reduction” value (Salmonella enteritidis)?
Answer: The value was 99.999%.

Question: And the “Log Reduction” value (Salmonella enteritidis)?
Answer: The value was greater than 6.4 Log10.

Question: And the “% Reduction” value (Escherichia coli)?
Answer: Its value is 99.99%.

Question: And the “Log Reduction” value (Escherichia coli)?
Answer: Its value is greater than 6.59 Log10.

Question: What about the “% Reduction” value (S. pyogenes) of the same molecule?
Answer: Its value is 99.99%.

Question: What about the “Log Reduction” value (S. pyogenes) of the same molecule?
Answer: Its value is greater than 6.12 Log10.

Question: What about the “% Reduction” value (Campylobacter rectus) of the same molecule?
Answer: The value was 99.99%.

Question: What about the “Log Reduction” value (Campylobacter rectus) of the same molecule?
Answer: The value was greater than 5.96 Log10.

Question: And the “% Reduction” value (Candida albicans [2])?
Answer: Its value is 99.99%.

Question: And the “Log Reduction” value (Candida albicans [2])?
Answer: Its value is greater than 5.98 Log10.

Question: And the “% Reduction” value (Human papilloma virus)?
Answer: Its value is 99.99%.

Question: And the “Log Reduction” value (Human papilloma virus)?
Answer: Its value is greater than 6.0 Log10.

Question: And the “% Reduction” value (Herpes simplex virus)?
Answer: The value was 99.99%.

Question: What about the “Log Reduction” value (Herpes simplex virus) of the same molecule?
Answer: Its value is greater than 5.8 Log10.

Question: And the “% Reduction” value (Herpes Simplex)?
Answer: The value was 99.999%.

Question: And the “Log Reduction” value (Herpes Simplex)?
Answer: The value was greater than 5.35 Log10.

Question: What about the “% Reduction” value (K. pneumoniae) of the same molecule?
Answer: Its value is 99.999%.

Question: What about the “Log Reduction” value (K. pneumoniae) of the same molecule?
Answer: The value was greater than 5.46 Log10.

Question: And the “% Reduction” value (VRE)?
Answer: The value was 99.999%.

Question: And the “Log Reduction” value (VRE)?
Answer: The value was greater than 5.51 Log10.

Question: And the “% Reduction” value [3]?
Answer: The value was greater than 99.99%.

Question: And the “Log Reduction” value [3]?
Answer: The value was greater than 4.92 Log10.

Question: And the “% Reduction” value [4]?
Answer: Its value is 99.999%.

Question: And the “Log Reduction” value [4]?
Answer: Its value is greater than 5.57 Log10.

Question: And the “% Reduction” value (Candida albicans [5])?
Answer: Its value is 99.999%.

Question: And the “Log Reduction” value (Candida albicans [5])?
Answer: The value was greater than 5.19 Log10.

Question: And the “% Reduction” value (Haemophilus influenzae)?
Answer: Its value is greater than 99.99%.

Question: What about the “Log Reduction” value (Haemophilus influenzae) of the same molecule?
Answer: Its value is greater than 4.81 Log10.

Question: What about the “% Reduction” value [6] of the same molecule?
Answer: Its value is 99.9999%.

Question: And the “Log Reduction” value [6]?
Answer: Its value is 7.53.

Question: And the “% Reduction” value [7]?
Answer: The value was 99.9999%.

Question: What about the “Log Reduction” value [7] of the same molecule?
Answer: Its value is 7.66.

Question: And the “% Reduction” value (Enterovirus-71 (EV-71))?
Answer: The value was 99.998%.

Question: And the “Log Reduction” value (Enterovirus-71 (EV-71))?
Answer: The value was 4.83.

Question: What about the LD50 (Acute Oral Toxicity) of the same molecule?
Answer: Its LD50 is greater than 5000 mg/kg.

Question: And the “survival after exposure to the test atmosphere” value ([8]; Gravimetric Chamber concentration 2.07 mg/L of HOCl, Wistar Rats)?
Answer: Its value is “Animals All animals survived”.

Question: What about the LC50 ([8]; both sexes, Wistar, rat, in vivo, 2.07 mg/L, male and female rats) of the same molecule?
Answer: Its LC50 is greater than 2.07 µg/mL.

Question: And the “USP <51> Antimicrobial Effectiveness Testing outcome” value [9]?
Answer: The value was “meets all requirements of USP <51> Antimicrobial Effectiveness Testing”.

Question: And the efficacy [10]?
Answer: The efficacy was 99.999%.

Question: What about the “reported cases of hypersensitivity” value [11] of the same molecule?
Answer: Its value is “zero”.

Question: What about the infected patients ([12]; 0.046% HOCl aqueous solution, 60 patients per group, surgical open wounds) of the same molecule?
Answer: Its infected patients is “no infected patients”.

Question: And the “wound appearance (biocompatibility)” value ([12]; human, in vivo)?
Answer: Its value is “define edges, good color and hydrated wound beds”.

Question: What about the “interference with antibiotics administered orally” value [13] of the same molecule?
Answer: Its value is “No interference with antibiotics administered orally”.

Question: And the “local infection rate for all ulcers” value [13]?
Answer: The value was “Decreased the local infection rate for all ulcers”.

Question: What about the “closing index for venous ulcers” value ([13]; at 6 months) of the same molecule?
Answer: Its value is 97%.

Question: What about the “closure of mixed ulcers” value ([13]; even when a surgical procedure was required) of the same molecule?
Answer: The value was no more than 75%.

Question: What about the recurrence rate ([13]; ulcers) of the same molecule?
Answer: Its recurrence rate is 2.7 % a year.

Question: What about the “Log Reduction” value (E. coli) of the same molecule?
Answer: The value was greater than 5.87 Log10.
